From PubChem BioAssay AID330 (DTP/NCI, 2004)
Where “and” joins values, the source holds several entries; their conditions need not be identical. Identical values can stand only once. Inconclusive results and toxic doses are left out.

System: P388 leukemia ip, CD2F1 mice, survival T/C
Test: NCI In Vivo Anticancer Drug Screen. Data for tumor model P388 Leukemia (intraperitoneal) in CD2F1 (CDF1) mice
Conditions: endpoint: median survival time, higher = longer survival
Procedure, shortened: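 Mice carrying the transplanted tumor received test compound or vehicle. Survival was recorded in each group, and the value is the treated-group measurement divided by that of the vehicle-treated control group.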

[1] = dose: 50.0 mg/kg/injection, schedule: Q01DX009 (ip), vehicle: Klucel (hydroxypropylcellulose) (HPC)
[2] = dose: 100.0 mg/kg/injection, schedule: Q01DX009 (ip), vehicle: Klucel (hydroxypropylcellulose) (HPC)
[3] = dose: 200.0 mg/kg/injection, schedule: Q01DX009 (ip), vehicle: Klucel (hydroxypropylcellulose) (HPC)
[4] = dose: 100.0 mg/kg/injection, schedule: Q04DX002 (ip), vehicle: saline with Tween-80
[5] = dose: 200.0 mg/kg/injection, schedule: Q04DX002 (ip), vehicle: saline with Tween-80
[6] = dose: 50.0 mg/kg/injection, schedule: Q01DX009 (ip), vehicle: saline
[7] = dose: 100.0 mg/kg/injection, schedule: Q01DX009 (ip), vehicle: saline
[8] = dose: 60.0 mg/kg/injection, schedule: Q01DX005 (ip), vehicle: saline with Tween-80
[9] = dose: 120.0 mg/kg/injection, schedule: Q01DX005 (ip), vehicle: saline with Tween-80
[10] = dose: 50.0 mg/kg/injection, schedule: Q01DX009 (ip), vehicle: saline with Tween-80
[11] = dose: 100.0 mg/kg/injection, schedule: Q01DX009 (ip), vehicle: saline with Tween-80
[12] = dose: 200.0 mg/kg/injection, schedule: Q01DX009 (ip), vehicle: saline with Tween-80
[13] = dose: 400.0 mg/kg/injection, schedule: Q01DX009 (ip), vehicle: saline with Tween-80
[14] = dose: 50.0 mg/kg/injection, schedule: Q01DX005 (ip), vehicle: saline with Tween-80
[15] = dose: 100.0 mg/kg/injection, schedule: Q01DX005 (ip), vehicle: saline with Tween-80
[16] = dose: 12.5 mg/kg/injection, schedule: Q01DX009 (ip), vehicle: saline with Tween-80
[17] = dose: 25.0 mg/kg/injection, schedule: Q01DX009 (ip), vehicle: saline with Tween-80
[18] = dose: 100.0 mg/kg/injection, schedule: Q04DX003 (ip), vehicle: saline with Tween-80
[19] = dose: 200.0 mg/kg/injection, schedule: Q04DX003 (ip), vehicle: saline with Tween-80

## COc1cccc(/C=C2/C(=O)N(Cc3ccco3)SC2=S)c1OC
[1]
  T/C: 97 % of control
[2]
  T/C: 95 % of control
[3]
  T/C: 92 % of control

## CC1CC(C)S(=O)CS1 (stereo not drawn)
[4]
  T/C: 98 % of control
[5]
  T/C: 100 % of control

## CP1(=S)CCC2=C1c1ccc(O)cc1CC2 (stereo not drawn)
[6]
  T/C: 100 % of control
[7]
  T/C: 100 % of control
dose: 200.0 mg/kg/injection, schedule: Q01DX009 (ip), vehicle: saline
  T/C: 101 % of control

## CCc1c(O)c(C#N)c2[nH]c3cc(C)c(C)cc3n2c1=O
[8]
  T/C: 100 % of control
[9]
  T/C: 102 % of control
dose: 240.0 mg/kg/injection, schedule: Q01DX005 (ip), vehicle: saline with Tween-80
  T/C: 99 % of control

## O=C(N/N=C/c1ccccc1O)N/N=C/c1ccccc1O
[10]
  T/C: 96 % of control
[11]
  T/C: 96 % of control
[12]
  T/C: 96 % of control
[13]
  T/C: 87 % of control

## Clc1nc2nc(Cl)c(Cl)n2c(Cl)c1Cl
[4]
  T/C: 105 % of control
[5]
  T/C: 117 % of control

## COc1cc(C=Nc2cccc(F)c2)ccc1N(CCCl)CCCl
dose: 0.25 mg/kg/injection, schedule: Q01DX009 (ip), vehicle: other
  T/C: 109 % of control
dose: 0.5 mg/kg/injection, schedule: Q01DX009 (ip), vehicle: other
  T/C: 113 % of control
dose: 1.0 mg/kg/injection, schedule: Q01DX009 (ip), vehicle: other
  T/C: 122 % of control

## CC(=O)C(=Cc1ccc(O)cc1)C(C)=O
[14]
  T/C: 100 % of control
[15]
  T/C: 103 % of control
dose: 200.0 mg/kg/injection, schedule: Q01DX005 (ip), vehicle: saline with Tween-80
  T/C: 103 % of control

## CC(=Nc1ccc(N(C)C)cc1)c1ccccc1
[8]
  T/C: 98 % of control
[9]
  T/C: 98 % of control

## CCN(CC)CCCCNc1ccc(NCCCCN(CC)CC)c2c1C(=O)c1ccccc1C2=O
dose: 3.12 mg/kg/injection, schedule: Q01DX009 (ip), vehicle: saline
  T/C: 90 % of control
dose: 6.25 mg/kg/injection, schedule: Q01DX009 (ip), vehicle: saline
  T/C: 90 % of control
[16]
  T/C: 118 % of control
dose: 12.5 mg/kg/injection, schedule: Q01DX009 (ip), vehicle: saline
  T/C: 97 % of control
[17]
  T/C: 115 % of control
[10]
  T/C: 120 % of control
[6]
  T/C: 91 % of control
[7]
  T/C: 100 % of control

## ClC1(c2ccccc2)c2ccc(Br)cc2-c2cc(Br)ccc21
dose: 65.0 mg/kg/injection, schedule: Q01DX009 (ip), vehicle: Klucel (hydroxypropylcellulose) (HPC)
  T/C: 109 % of control
[18]
  T/C: 118 % of control
[12]
  T/C: 109 % of control
[19]
  T/C: 122 % of control
[13]
  T/C: 113 % of control
dose: 400.0 mg/kg/injection, schedule: Q04DX003 (ip), vehicle: saline with Tween-80
  T/C: 118 % of control

## CC(=O)Nc1c(I)c(C(=O)NC2C(O)OC(CO)C(O)C2O)c(I)c(N(C)C(C)=O)c1I (stereo not drawn)
dose: 60.0 mg/kg/injection, schedule: Q01DX005 (ip), vehicle: saline
  T/C: 100 % of control
dose: 120.0 mg/kg/injection, schedule: Q01DX005 (ip), vehicle: saline
  T/C: 100 % of control
dose: 240.0 mg/kg/injection, schedule: Q01DX005 (ip), vehicle: saline
  T/C: 107 % of control

## CP1(=O)CCC2=C1CCc1cc(O)ccc12 (stereo not drawn)
dose: 6.25 mg/kg/injection, schedule: Q01DX009 (ip), vehicle: Klucel (hydroxypropylcellulose) (HPC)
  T/C: 100 % of control
dose: 12.5 mg/kg/injection, schedule: Q01DX009 (ip), vehicle: Klucel (hydroxypropylcellulose) (HPC)
  T/C: 100 % of control
dose: 25.0 mg/kg/injection, schedule: Q01DX009 (ip), vehicle: Klucel (hydroxypropylcellulose) (HPC)
  T/C: 103 % of control and 106 % of control

## COC1/C=C/OC2(C)Oc3c(C)c(O)c4c(O)c(c(/C=N/N5CC(C)N(Cc6ccccc6)C(C)C5)c(O)c4c3C2=O)NC(=O)C(C)=C/C=C/C(C)C(O)C(C)C(O)C(C)C(OC(C)=O)C1C (stereo not drawn)
[16]
  T/C: 113 % of control
[17]
  T/C: 109 % of control
[10]
  T/C: 118 % of control and 124 % of control
[11]
  T/C: 114 % of control

## Nn1nnc(-c2ccccc2)n1
[1]
  T/C: 96 % of control
[2]
  T/C: 96 % of control
[3]
  T/C: 97 % of control

## CC1=NN(C(=O)c2ccncc2)C(=O)C1N=Nc1ccc2ccccc2c1 (stereo not drawn)
[10]
  T/C: 101 % of control
[11]
  T/C: 102 % of control

## C1=C(c2ccccc2)C(c2ccc(OCCN3CCCCC3)cc2)Oc2ccccc21 (stereo not drawn)
[14]
  T/C: 92 % of control
[15]
  T/C: 86 % of control

## COC(=O)c1c(C)ccc2c(O)c3c(cc12)C(=O)c1c2c(cc(O)c1C3=O)C1(C)OC(C)(O2)C(O)C(N(C)C)C1O (stereo not drawn)
dose: 25.0 mg/kg/injection, schedule: Q01DX010 (ip), vehicle: saline
  T/C: 100 % of control
dose: 50.0 mg/kg/injection, schedule: Q01DX010 (ip), vehicle: saline
  T/C: 100 % of control
dose: 100.0 mg/kg/injection, schedule: Q01DX010 (ip), vehicle: saline
  T/C: 100 % of control
dose: 200.0 mg/kg/injection, schedule: Q01DX010 (ip), vehicle: saline
  T/C: 100 % of control
dose: 400.0 mg/kg/injection, schedule: Q01DX010 (ip), vehicle: saline
  T/C: 100 % of control

## CC(C)(C)C1(c2ccccc2)C(=O)c2ccccc2C1=O
dose: 100.0 mg/kg/injection, schedule: Q04DX002 (ip), vehicle: saline
  T/C: 100 % of control
dose: 200.0 mg/kg/injection, schedule: Q04DX002 (ip), vehicle: saline
  T/C: 97 % of control
dose: 400.0 mg/kg/injection, schedule: Q04DX002 (ip), vehicle: saline
  T/C: 101 % of control

## CS(=O)(=O)OCCN(CCOS(C)(=O)=O)c1cccc(C(F)(F)F)c1
dose: 0.75 mg/kg/injection, schedule: Q04DX003 (ip), vehicle: saline
  T/C: 100 % of control
dose: 1.5 mg/kg/injection, schedule: Q04DX003 (ip), vehicle: saline
  T/C: 100 % of control
dose: 3.0 mg/kg/injection, schedule: Q04DX003 (ip), vehicle: saline
  T/C: 100 % of control
dose: 25.0 mg/kg/injection, schedule: Q04DX003 (ip), vehicle: saline with Tween-80
  T/C: 170 % of control and 212 % of control
[10]
  T/C: 159 % of control
dose: 50.0 mg/kg/injection, schedule: Q04DX003 (ip), vehicle: saline with Tween-80
  T/C: 216 % of control
[11]
  T/C: 213 % of control
[18]
  T/C: 87 % of control

## Fc1ccc(NC(=S)SCc2ccc3c(c2)OCO3)cc1F
[1]
  T/C: 119 % of control
[2]
  T/C: 102 % of control
[3]
  T/C: 86 % of control

## C1COCCOCCOCCO1.[Br][Sn]([Br])([Br])[Br]
dose: 60.0 mg/kg/injection, schedule: Q01DX005 (ip), vehicle: Klucel (hydroxypropylcellulose) (HPC)
  T/C: 103 % of control
dose: 120.0 mg/kg/injection, schedule: Q01DX005 (ip), vehicle: Klucel (hydroxypropylcellulose) (HPC)
  T/C: 107 % of control

## CC12CCC(C(=O)C1=O)C2(C)C (stereo not drawn)
[10]
  T/C: 102 % of control
[11]
  T/C: 93 % of control
[12]
  T/C: 95 % of control
[13]
  T/C: 97 % of control

## CCSC(=O)N1c2ccc(OC)cc2C=CC1C#N (stereo not drawn)
dose: 44.0 mg/kg/injection, schedule: Q01DX009 (ip), vehicle: saline with Tween-80
  T/C: 119 % of control
[10]
  T/C: 105 % of control
dose: 66.0 mg/kg/injection, schedule: Q01DX009 (ip), vehicle: saline with Tween-80
  T/C: 119 % of control
[18]
  T/C: 109 % of control
dose: 150.0 mg/kg/injection, schedule: Q01DX009 (ip), vehicle: saline with Tween-80
  T/C: 160 % of control
[12]
  T/C: 108 % of control
[19]
  T/C: 118 % of control
dose: 266.0 mg/kg/injection, schedule: Q04DX003 (ip), vehicle: saline with Tween-80
  T/C: 124 % of control
[13]
  T/C: 118 % of control
dose: 800.0 mg/kg/injection, schedule: Q01DX009 (ip), vehicle: saline with Tween-80
  T/C: 96 % of control

## O=[N+]([O-])c1c(O)c(CNCCCO)cc(CNCCCO)c1O
dose: 25.0 mg/kg/injection, schedule: Q01DX009 (ip), vehicle: saline
  T/C: 113 % of control
[6]
  T/C: 116 % of control

## NC(=S)c1ccc(/C=N/c2nccs2)cc1
dose: 100.0 mg/kg/injection, schedule: Q01DX001 (ip), vehicle: Klucel (hydroxypropylcellulose) (HPC)
  T/C: 105 % of control
dose: 200.0 mg/kg/injection, schedule: Q01DX001 (ip), vehicle: Klucel (hydroxypropylcellulose) (HPC)
  T/C: 104 % of control
dose: 400.0 mg/kg/injection, schedule: Q01DX001 (ip), vehicle: Klucel (hydroxypropylcellulose) (HPC)
  T/C: 105 % of control

## Cc1ccc(S(=O)(=O)Nc2nnc(-c3coc4ccc(C)cc4c3=O)s2)cc1
[14]
  T/C: 89 % of control
[15]
  T/C: 88 % of control
